Source: publication PMC12495443, “Developing inhibitors of the guanosine triphosphate hydrolysis accelerating activity of Regulator of G protein Signaling-14 [drawing 1]” (The Journal of Biological Chemistry, 2025)

Biological target: T1, human RGS12 RGS-box (wild-type) (Homo sapiens, UniProt O14924)
T1 construct: human RGS12 RGS-box (aa 695–843 of UniProt O14924); host or cells: E. coli
T1 sequence (O14924 695-843): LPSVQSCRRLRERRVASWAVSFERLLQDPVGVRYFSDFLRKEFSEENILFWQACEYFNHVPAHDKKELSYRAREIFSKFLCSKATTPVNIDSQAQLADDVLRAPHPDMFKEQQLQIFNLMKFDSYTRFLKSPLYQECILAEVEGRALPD
Test: Transcreener GDP RGScreen fluorescence polarization assay of RGS12 RGS-box GAP activity on Gαi1(DM)
Assay type: biochemical
Settings: wild-type RGS12 RGS-box GAP activity, Gαi1(DM), read-out: RGS12 pIC50 (converted)
In short: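 Steady-state GTP hydrolysis by rate-altered double point-mutant Gαi1 was read by Transcreener GDP fluorescence polarization, with GTP conversion kept below 10% of maximum input. The E. coli-expressed, N-terminal His6-tagged wild-type RGS-boxes were RGS12 aa 695–843 and RGS14 aa 46–195.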

IC50: 1200 nM
Compound: COc1ccc(OCc2nnc3n2N=C(c2ccc(OC)c(OC)c2)CS3)cc1 [Z55660043, 6-(3,4-dimethoxyphenyl)-3-[(4-methoxy-phenoxy)methyl]-5H-[1,2,4]triazolo[3,4-b][1,3,4]thiadiazine]
